In brackets after ≈: the same amount, converted by molar mass. Activity calls are given as the source filed them. The rule behind the calls is not given here. Numbered stars: 1 amine (or outer) side, 2 acyl side, 3 side chain; on linkers, the order of the positions; unused ones are H or OH. Bridge positions count the residues as written; N and C are the ends. Square brackets hold non-standard residues; d marks the D form. Peptide text beside a SMILES is read from it. X1 = C=CCCC[C@H](O[*:2])C(C)(C)C(=O)[*:1]; X2 = C#CCCC[C@H](O[*:2])C(C)(C)C(=O)[*:1]; Hmpa(2S,3S) = CC[C@H](C)[C@H](O)C(=O)O; NMeF = CN[C@@H](Cc1ccccc1)C(=O)O
How the values were obtained:
[1] = system: Mycobacterium tuberculosis; experiment: Antimycobacterial activity against Mycobacterium tuberculosis ATCC 25177 at 5 ug/disk by disk diffusion susceptibility assay; format: functional; conditions: read-out: DIZ
[2] = system: Mycobacterium tuberculosis; experiment: Antimycobacterial activity against Mycobacterium tuberculosis ATCC 25177 at 25 ug/disk by disk diffusion susceptibility assay; format: functional; conditions: read-out: DIZ
[3] = system: Mycobacterium tuberculosis; experiment: Antimycobacterial activity against Mycobacterium tuberculosis ATCC 35818 at 25 ug/disk by disk diffusion susceptibility assay; format: functional; conditions: read-out: DIZ
[4] = system: Mycobacterium tuberculosis; experiment: Antimycobacterial activity against Mycobacterium tuberculosis ATCC 35818 at 1 ug/disk by disk diffusion susceptibility assay; format: functional; conditions: read-out: DIZ
[5] = system: Mycobacterium tuberculosis; experiment: Antimycobacterial activity against Mycobacterium tuberculosis ATCC 25177 at 1 ug/disk by disk diffusion susceptibility assay; format: functional; conditions: read-out: DIZ
[6] = system: Mycobacterium tuberculosis; experiment: Antimycobacterial activity against Mycobacterium tuberculosis ATCC 35818 at 5 ug/disk by disk diffusion susceptibility assay; format: functional; conditions: read-out: DIZ
[7] = system: LoVo; experiment: Cytotoxicity against human LoVo cells; format: functional, cell-based
[8] = system: Mycobacterium tuberculosis; experiment: Antimycobacterial activity against Mycobacterium tuberculosis ATCC 35818 at 100 ug/disk by disk diffusion susceptibility assay; format: functional; conditions: read-out: DIZ
[9] = Stimulation of elastase activity at 50 ug/ml relative to control
[10] = Inhibition of chymotrypsin
[11] = biological target: Prothrombin (Homo sapiens) (UniProt P00734); experiment: Inhibition of thrombin
[12] = system: Mycobacterium tuberculosis; experiment: Antimycobacterial activity against Mycobacterium tuberculosis ATCC 25177 at 100 ug/disk by disk diffusion susceptibility assay; format: functional; conditions: read-out: DIZ
[13] = biological target: T1, Papain (Carica papaya) (UniProt P00784); experiment: Inhibition of papaya papain
T1 sequence (whole entry): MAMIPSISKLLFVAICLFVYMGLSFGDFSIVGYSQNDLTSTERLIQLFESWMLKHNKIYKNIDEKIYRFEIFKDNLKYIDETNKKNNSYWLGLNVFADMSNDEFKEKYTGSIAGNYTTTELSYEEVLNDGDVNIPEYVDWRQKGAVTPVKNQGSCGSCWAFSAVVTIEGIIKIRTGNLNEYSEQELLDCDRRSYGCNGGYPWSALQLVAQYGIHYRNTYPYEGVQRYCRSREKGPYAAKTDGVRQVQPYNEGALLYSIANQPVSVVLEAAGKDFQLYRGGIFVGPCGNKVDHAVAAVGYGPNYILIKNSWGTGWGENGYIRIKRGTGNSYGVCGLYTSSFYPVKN

[14] = biological target: Plasminogen (Homo sapiens) (UniProt P00747); experiment: Inhibition of plasmin
Plasminogen (Homo sapiens), sequence (P00747 97-580 limits assumed): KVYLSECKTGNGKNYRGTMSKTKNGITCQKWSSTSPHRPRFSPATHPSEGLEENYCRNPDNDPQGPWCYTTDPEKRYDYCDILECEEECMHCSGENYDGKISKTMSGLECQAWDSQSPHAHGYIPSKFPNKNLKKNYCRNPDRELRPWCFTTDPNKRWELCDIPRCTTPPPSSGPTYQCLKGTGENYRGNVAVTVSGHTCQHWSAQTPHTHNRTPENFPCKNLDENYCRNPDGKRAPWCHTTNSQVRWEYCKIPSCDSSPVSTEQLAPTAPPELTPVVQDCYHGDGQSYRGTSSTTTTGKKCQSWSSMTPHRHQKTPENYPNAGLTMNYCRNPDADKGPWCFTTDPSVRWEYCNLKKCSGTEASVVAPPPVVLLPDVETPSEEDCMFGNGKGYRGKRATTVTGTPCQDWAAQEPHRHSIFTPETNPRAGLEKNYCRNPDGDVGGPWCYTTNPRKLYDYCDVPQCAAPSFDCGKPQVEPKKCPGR
Plasminogen (Homo sapiens), sequence (P00747 581-810 limits assumed): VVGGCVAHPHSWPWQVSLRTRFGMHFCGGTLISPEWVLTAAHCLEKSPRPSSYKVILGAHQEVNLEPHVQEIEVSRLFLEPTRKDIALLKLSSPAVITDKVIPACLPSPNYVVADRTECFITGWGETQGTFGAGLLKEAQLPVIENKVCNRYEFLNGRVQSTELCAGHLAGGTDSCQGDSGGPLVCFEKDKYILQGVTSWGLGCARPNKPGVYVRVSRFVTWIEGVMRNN

[15] = Inhibition of elastase
[16] = Inhibition of trypsin

SMILES | zone of inhibition at 5 µg/disc [1] | zone of inhibition at 25 µg/disc [2] | zone of inhibition at 25 µg/disc [3] | zone of inhibition at 1 µg/disc [4] | zone of inhibition at 1 µg/disc [5] | zone of inhibition at 5 µg/disc [6] | IC50 [7] | zone of inhibition at 100 µg/disc [8] | fold change (FC) [9] | Activity [10] | Activity [11] | zone of inhibition at 100 µg/disc [12] | Activity [13] | Activity [14] | Activity [15] | Activity [16]
CN[C@@H]1[C@H](O[C@H]2[C@H](O[C@H]3[C@H](O)[C@@H](O)[C@H](N=C(N)N)[C@@H](O)[C@@H]3N=C(N)N)O[C@@H](C)[C@]2(O)C=O)O[C@@H](CO)[C@H](O)[C@H]1O [STREPTOMYCIN] | 15 mm | 50 mm | 55 mm | 10 mm | 0 mm | 33 mm |  |  |  |  |  |  |  |  |  | 
C=CCCC[C@@H]1OC(=O)CNC(=O)[C@H]([C@@H](C)CC)NC(=O)[C@@H]2CCCN2C(=O)[C@H]([C@@H](C)CC)OC(=O)[C@H](Cc2ccccc2)N(C)C(=O)[C@H](C(C)C)NC(=O)C1(C)C [PITIPEPTOLIDE B] (V[NMeF][Hmpa(2S,3S)]PIG; linker N-C via X1) |  | 15 mm | 10 mm |  |  |  | 1.95 µg/mL (≈ 2.41 µM) | 15 mm | 2.55 | inactive | inactive | 30 mm | inactive | inactive | inactive | inactive
C#CCCC[C@@H]1OC(=O)CNC(=O)[C@H]([C@@H](C)CC)NC(=O)[C@@H]2CCCN2C(=O)[C@H]([C@@H](C)CC)OC(=O)[C@H](Cc2ccccc2)N(C)C(=O)[C@H](C(C)C)NC(=O)C1(C)C [PITIPEPTOLIDE A] (V[NMeF][Hmpa(2S,3S)]PIG; linker N-C via X2) |  | 10 mm | 9 mm |  |  |  | 2.25 µg/mL (≈ 2.78 µM) | 15 mm | 2.76 | inactive | inactive | 25 mm | inactive | inactive | inactive | inactive
